Publication PMC5431883, “Enhancing Specific Disruption of Intracellular Protein Complexes by Hydrocarbon Stapled Peptides Using Lipid Based Delivery” (Scientific Reports, 2017)
Positions of bridges follow the written chain, without caps; N, C: chain ends. Non-standard residues stand in square brackets, D forms with d. Residues, ends and D or L forms follow the SMILES beside them. Lys(Me2) = CN(C)CCCC[C@H](N)C(=O)O; R8 = C=CCCCCCC[C@@](C)(N)C(=O)O; Cba = N[C@@H](CC1CCC1)C(=O)O; S5 = C=CCCC[C@](C)(N)C(=O)O; Ahx = NCCCCCC(=O)O
Note: 250 nM MDM2.

The compounds below were run against T1, Mdm2 (1-125) (Homo sapiens, UniProt Q00987) (assay: Mdm2 competitive fluorescence anisotropy assay (FAM-labeled 12/1 peptide displacement)). Conditions: read-out: Kd (apparent dissociation constant, competitive fluorescence anisotropy).
T1 construct: Purified MDM2 (1-125) protein was titrated against 50 nM carboxyfluorescein (FAM)-labeled; GST (N, cleaved yes); made in house; host or cells: E. coli BL21 DE3 (pGEX-6P-1)
T1 sequence (Q00987 1-125): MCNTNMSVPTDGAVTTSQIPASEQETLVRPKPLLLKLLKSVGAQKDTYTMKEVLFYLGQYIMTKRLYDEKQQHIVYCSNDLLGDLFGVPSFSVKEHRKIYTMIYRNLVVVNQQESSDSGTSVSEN
Assay type: binding
Procedure: analyzed with SDS page gel and concentrated using a Centricon (3.5 kDa MWCO) concentrator, Millipore. Mdm2 protein samples were then dialyzed into a buffer solution containing 20mM Bis-Tris, pH 6.5, 0.05M NaCl with 1mM DTT and loaded onto a monoS column pre-equilibrated in buffer A (20mM Bis-Tris, pH 6.5, 1mM DTT). The column was then washed in 6 column volumes of buffer A and bound protein was eluted with a linear gradient of 1M NaCL over 25 column volumes. Protein fractions were analyzed with SDS page gel and concentrated using a Centricon (3.5 kDa MWCO) concentrator, Millipore.
Protein concentration was determined using A280 using an extinction coefficients […]
Mdm2 Competitive Fluorescence Anisotropy Assay and Kd Determination […]
Dissociation constants for titration of MDM2 against […]
equation shown below:25,26
[P] is the protein concentration (MDM2), [L] is the labeled peptide concentration, r is the anisotropy measured, r0 is the anisotropy of the free peptide, rb is the anisotropy of the MDM2– FAM-labeled peptide complex, Kd is the dissociation constant, [L]t is the total FAM labeled
(1 picture or pasted object on this page, not shown here) […]
peptide concentration, and [P]t is the total MDM2 concentration. […]
respective competing ligands in subsequent competition assays.
Apparent Kd values were determined for a variety of molecules via competitive fluorescence anisotropy experiments. Titrations were carried out with the concentration of MDM2 held constant […]
The competing molecules were then titrated against the complex of the FAM-labeled peptide and protein. Apparent Kd values were determined by fitting the experimental data to the equations shown below:26,27 […]
[L]st and [L]t denote labeled ligand and total unlabeled ligand input concentrations, respectively.
Kd2 is the dissociation constant of the interaction between the unlabeled ligand and the protein. In […]
all competitive types of experiments, it is assumed that [P]t > [L]st, otherwise considerable amounts of free labeled ligand would always be present and would interfere with measurements. Kd1 is the […]
experimentally determined as described in the previous paragraph. The FAM-labeled peptide was dissolved in dimethyl sulfoxide (DMSO) at 1 mM and diluted into experimental buffer. Readings were carried out with an Envision Multilabel Reader (PerkinElmer). Experiments were carried out […]
Tween 20 buffer. All titrations were carried out in triplicate. Curve-fitting was carried out using […]
Negative control titrations of the ligands under investigation were also carried out with the fluorescently labeled peptide (in the absence of MDM2) to ensure no interactions were occurring between the ligands and FAM-labeled peptide. […]
which would otherwise indicate an unintended interaction between the ligand and the FAM-labeled peptide to be displaced from the MDM2 binding site. […]
With `CC(=O)N[C@@H](CCCCN)C(=O)N[C@@H](CCCCN)C(=O)N[C@@H](CCCCN)C(=O)NCCCCCC(=O)N[C@H](C(=O)N[C@@H](CO)C(=O)N[C@@H](Cc1ccccc1)C(=O)N[C@]1(C)CCCCCCC=CCCC[C@@](C)(C(=O)N[C@@H](CCC(=O)O)C(=O)N[C@@H](CC(N)=O)C(=O)N[C@@H](Cc2ccccc2)C(N)=O)NC(=O)[C@H](CC(C)C)NC(=O)[C@H](CC(C)C)NC(=O)[C@H](C)NC(=O)[C@H](Cc2c[nH]c3ccccc23)NC(=O)[C@H](Cc2ccc(O)cc2)NC(=O)[C@H](CCC(=O)O)NC1=O)[C@@H](C)O` [VIP-115] (Ac-KKK[Ahx]TSF[R8]EYWALL[S5]ENF-NH2; staple 8-15) the Kd was 11.6 ± 1.2 nM. `CC(=O)N[C@@H](CCCCN)C(=O)NCCCCCC(=O)N[C@H](C(=O)N[C@@H](CO)C(=O)N[C@@H](Cc1ccccc1)C(=O)N[C@]1(C)CCCCCCC=CCCC[C@@](C)(C(=O)N[C@@H](CCC(=O)O)C(=O)N[C@@H](CC(N)=O)C(=O)N[C@@H](Cc2ccccc2)C(N)=O)NC(=O)[C@H](CC(C)C)NC(=O)[C@H](CC(C)C)NC(=O)[C@H](C)NC(=O)[C@H](Cc2c[nH]c3ccccc23)NC(=O)[C@H](Cc2ccc(O)cc2)NC(=O)[C@H](CCC(=O)O)NC1=O)[C@@H](C)O` [VIP-116] was tested, and the Kd was 15.1 ± 1.7 nM. In the case of `CC(=O)N[C@@H](CCCNC(=N)N)C(=O)N[C@@H](CCCNC(=N)N)C(=O)NCCCCCC(=O)N[C@H](C(=O)N[C@@H](CO)C(=O)N[C@@H](Cc1ccccc1)C(=O)N[C@]1(C)CCCCCCC=CCCC[C@@](C)(C(=O)N[C@@H](CCC(=O)O)C(=O)N[C@@H](CC(N)=O)C(=O)N[C@@H](Cc2ccccc2)C(N)=O)NC(=O)[C@H](CC(C)C)NC(=O)[C@H](CC(C)C)NC(=O)[C@H](C)NC(=O)[C@H](Cc2c[nH]c3ccccc23)NC(=O)[C@H](Cc2ccc(O)cc2)NC(=O)[C@H](CCC(=O)O)NC1=O)[C@@H](C)O` [VIP-117] (Ac-RR[Ahx]TSF[R8]EYWALL[S5]ENF-NH2; staple 7-14), the Kd is reported as 160 ± 14.6 nM. In the case of `CC(=O)N[C@@H](CCCNC(=N)N)C(=O)NCCCCCC(=O)N[C@H](C(=O)N[C@@H](CO)C(=O)N[C@@H](Cc1ccccc1)C(=O)N[C@]1(C)CCCCCCC=CCCC[C@@](C)(C(=O)N[C@@H](CCC(=O)O)C(=O)N[C@@H](CC(N)=O)C(=O)N[C@@H](Cc2ccccc2)C(N)=O)NC(=O)[C@H](CC(C)C)NC(=O)[C@H](CC(C)C)NC(=O)[C@H](C)NC(=O)[C@H](Cc2c[nH]c3ccccc23)NC(=O)[C@H](Cc2ccc(O)cc2)NC(=O)[C@H](CCC(=O)O)NC1=O)[C@@H](C)O` [VIP-118], the Kd is reported as 39.5 ± 3.9 nM. Compound `CC(=O)N[C@@H](CCCCN)C(=O)N[C@@H](CCCCN)C(=O)NCCCCCC(=O)N[C@@H](CC(C)C)C(=O)N[C@H](C(=O)N[C@@H](Cc1ccccc1)C(=O)N[C@]1(C)CCCCCCC=CCCC[C@@](C)(C(=O)N[C@@H](CCC(=O)O)C(=O)N[C@@H](CC(N)=O)C(=O)N[C@@H](Cc2ccccc2)C(N)=O)NC(=O)[C@H](CC(C)C)NC(=O)[C@H](CC(C)C)NC(=O)[C@H](C)NC(=O)[C@H](Cc2c[nH]c3ccccc23)NC(=O)[C@H](Cc2ccc(O)cc2)NC(=O)[C@H](CCC(=O)O)NC1=O)[C@@H](C)O` [VIP-119] (Ac-KK[Ahx]LTF[R8]EYWALL[S5]ENF-NH2; staple 7-14) has a Kd of 2.7 ± 0.9 nM. For `CC(=O)N[C@@H](CC(C)C)C(=O)N[C@H](C(=O)N[C@@H](Cc1ccccc1)C(=O)N[C@]1(C)CCCCCCC=CCCC[C@@](C)(C(=O)N[C@@H](CCC(=O)O)C(=O)N[C@@H](CC(N)=O)C(=O)N[C@@H](Cc2ccccc2)C(N)=O)NC(=O)[C@H](CC(C)C)NC(=O)[C@H](CC(C)C)NC(=O)[C@H](C)NC(=O)[C@H](Cc2c[nH]c3ccccc23)NC(=O)[C@H](Cc2ccc(O)cc2)NC(=O)[C@H](CCC(=O)O)NC1=O)[C@@H](C)O` [VIP-120] (Ac-LTF[R8]EYWALL[S5]ENF-NH2; staple 4-11), the Kd was 1.8 ± 0.7 nM. Compound `CC(=O)N[C@@H](CCCCN)C(=O)N[C@@H](CC(C)C)C(=O)N[C@@H](C)C(=O)N[C@@H](CCCCN)C(=O)NCCCCCC(=O)N[C@H](C(=O)N[C@@H](CO)C(=O)N[C@@H](Cc1ccccc1)C(=O)N[C@]1(C)CCCCCCC=CCCC[C@@](C)(C(N)=O)NC(=O)[C@H](CC(C)C)NC(=O)[C@H](CC(C)C)NC(=O)[C@H](C)NC(=O)[C@H](Cc2c[nH]c3ccccc23)NC(=O)[C@H](Cc2ccc(O)cc2)NC(=O)[C@H](CCC(=O)O)NC1=O)[C@@H](C)O` [VIP-122] has a Kd of 3.7 ± 0.9 nM. `CC(=O)N[C@@H](CCCCN)C(=O)N[C@@H](CCCCN)C(=O)NCCCCCC(=O)N[C@H](C(=O)N[C@@H](CO)C(=O)N[C@@H](Cc1ccccc1)C(=O)N[C@]1(C)CCCCCCC=CCCC[C@@](C)(C(=O)N[C@@H](CCC(=O)O)C(=O)N[C@@H](CC(N)=O)C(=O)N[C@@H](Cc2ccccc2)C(N)=O)NC(=O)[C@H](CC2CCC2)NC(=O)[C@H](CC(C)C)NC(=O)[C@H](C)NC(=O)[C@H](Cc2c[nH]c3ccccc23)NC(=O)[C@H](Cc2ccc(O)cc2)NC(=O)[C@H](CCC(=O)O)NC1=O)[C@@H](C)O` [VIP-124] (Ac-KK[Ahx]TSF[R8]EYWAL[Cba][S5]ENF-NH2; staple 7-14) was tested, and the Kd was 2.7 ± 0.4 nM. For `CC(=O)N[C@@H](CCCCN)C(=O)N[C@@H](CCCCN)C(=O)N[C@@H](CCCCN)C(=O)NCCCCCC(=O)N[C@H](C(=O)N[C@@H](CO)C(=O)N[C@@H](CC(C)C)C(=O)N[C@]1(C)CCCCCCC=CCCC[C@@](C)(C(=O)N[C@@H](CCC(=O)O)C(=O)N[C@@H](CC(N)=O)C(=O)N[C@@H](Cc2ccccc2)C(N)=O)NC(=O)[C@H](Cc2c[nH]c3ccccc23)NC(=O)[C@H](CC(C)C)NC(=O)[C@H](C)NC(=O)[C@H](Cc2ccccc2)NC(=O)[C@H](Cc2ccc(O)cc2)NC(=O)[C@H](CCC(=O)O)NC1=O)[C@@H](C)O` [VIP-127 SCRAM] (Ac-KKK[Ahx]TSL[R8]EYFALW[S5]ENF-NH2; staple 8-15), the Kd was > 10000 nM. With `CC(=O)N[C@@H](CCCNC(=N)N)C(=O)N[C@@H](CCCNC(=N)N)C(=O)N[C@@H](CCCNC(=N)N)C(=O)NCCCCCC(=O)N[C@H](C(=O)N[C@@H](CO)C(=O)N[C@@H](CC(C)C)C(=O)N[C@]1(C)CCCCCCC=CCCC[C@@](C)(C(=O)N[C@@H](CCC(=O)O)C(=O)N[C@@H](CC(N)=O)C(=O)N[C@@H](Cc2ccccc2)C(N)=O)NC(=O)[C@H](Cc2c[nH]c3ccccc23)NC(=O)[C@H](CC(C)C)NC(=O)[C@H](C)NC(=O)[C@H](Cc2ccccc2)NC(=O)[C@H](Cc2ccc(O)cc2)NC(=O)[C@H](CCC(=O)O)NC1=O)[C@@H](C)O` [VIP-128 SCRAM] (Ac-RRR[Ahx]TSL[R8]EYFALW[S5]ENF-NH2; staple 8-15) the Kd was > 10000 nM. `CC(=O)N[C@@H](CCCCN)C(=O)N[C@@H](CC(C)C)C(=O)N[C@@H](C)C(=O)N[C@@H](CCCCN)C(=O)NCCCCCC(=O)N[C@H](C(=O)N[C@@H](CO)C(=O)N[C@@H](Cc1ccccc1)C(=O)N[C@]1(C)CCCCCCC=CCCC[C@@](C)(C(=O)N[C@@H](CCC(=O)O)C(=O)N[C@@H](CC(N)=O)C(=O)N[C@@H](Cc2ccccc2)C(N)=O)NC(=O)[C@H](CC(C)C)NC(=O)[C@H](CC(C)C)NC(=O)[C@H](C)NC(=O)[C@H](Cc2c[nH]c3ccccc23)NC(=O)[C@H](Cc2ccc(O)cc2)NC(=O)[C@H](CCC(=O)O)NC1=O)[C@@H](C)O` [VIP-129] (Ac-KLAK[Ahx]TSF[R8]EYWALL[S5]ENF-NH2; staple 9-16) showed a Kd of 9.1 ± 1 nM. `CC(=O)N[C@@H](CCCCN(C)C)C(=O)N[C@@H](CCCCN(C)C)C(=O)NCCCCCC(=O)N[C@H](C(=O)N[C@@H](CO)C(=O)N[C@@H](Cc1ccccc1)C(=O)N[C@]1(C)CCCCCCC=CCCC[C@@](C)(C(=O)N[C@@H](CCC(=O)O)C(=O)N[C@@H](CC(N)=O)C(=O)N[C@@H](Cc2ccccc2)C(N)=O)NC(=O)[C@H](CC(C)C)NC(=O)[C@H](CC(C)C)NC(=O)[C@H](C)NC(=O)[C@H](Cc2c[nH]c3ccccc23)NC(=O)[C@H](Cc2ccc(O)cc2)NC(=O)[C@H](CCC(=O)O)NC1=O)[C@@H](C)O` [VIP-131] (Ac-[Lys(Me2)][Lys(Me2)][Ahx]TSF[R8]EYWALL[S5]ENF-NH2; staple 7-14) was tested, and the Kd was 25.6 ± 2.6 nM. In the case of `CC(=O)N[C@H](CCCCN)C(=O)NCCCCCC(=O)N[C@H](C(=O)N[C@@H](CO)C(=O)N[C@@H](Cc1ccccc1)C(=O)N[C@]1(C)CCCCCCC=CCCC[C@@](C)(C(=O)N[C@@H](CCC(=O)O)C(=O)N[C@@H](CC(N)=O)C(=O)N[C@@H](Cc2ccccc2)C(N)=O)NC(=O)[C@H](CC(C)C)NC(=O)[C@H](CC(C)C)NC(=O)[C@H](C)NC(=O)[C@H](Cc2c[nH]c3ccccc23)NC(=O)[C@H](Cc2ccc(O)cc2)NC(=O)[C@H](CCC(=O)O)NC1=O)[C@@H](C)O` [VIP-132], the Kd is reported as 8 ± 0.8 nM.
